The source of these data is patent publication US20250249025A1, “DRUG DELIVERY CARRIER UTILIZING PROPERTY OF D-ALLOSE BEING UPTAKEN BY CANCER CELL, DRUG DELIVERY METHOD, AND COMPOSITION FOR TREATING RENAL CELL CARCINOMA” (NATIONAL UNIVERSITY CORPORATION KAGAWA UNIVERSITY, priority 2019, published 2025).

Series [1] deals with ACHN tumor. Kind of series: D-allose concentration in tumor after intraperitoneal injection, ACHN xenograft mouse model. Format: in vivo. The conditions noted are these: ACHN xenograft mice, 400 mg/kg intraperitoneal. As for the experimental part:
(§1) The experiment of the present example used two human renal cell carcinoma cell lines (Caki-I and ACHN). Each cell was cultured under the wet environment of 37° C. and 5% CO2 by using a RPMI-1640 culture solution (2000 mg D-glucose/L) containing a 10% fetal calf serum, a HEPES buffer, and penicillin-streptomycin.
(§2) With respect to a renal cell carcinoma xenograft mouse model, a 1.0×10^5 cells/ml of a cell suspension was obtained by adjusting the cultured cells with a MEM culture solution and then 0.1 ml of the resulting suspension was injected into the femoral subcutaneous tissue of Female athymic nude mice (BALB/c-nu/nu, 6-week-old). After checking that the tumor volume was 200 mm^3 or more one week after the injection, the mice were provided for the experiment thereafter.
(§3) A 400 mg/kg/0.4 mL solution of rare sugar D-allose was prepared using physiological saline and was intraperitoneally injected into the xenograft mouse models of two human renal cell carcinoma cell lines (Caki-I and ACHN) through a 27 G needle. A tumor was enucleated from the mouse before […] administration and 1 hour, 2 hours, and 4 hours after the administration. […] A monosaccharide in the supernatant thus obtained was labeled with ABEE (4-aminobenzoic acid ethyl ester) and the quantitative analysis of D-allose was performed by HPLC (high performance liquid chromatography). […]

For series [2], the system named is Caki-I tumor tissue. Briefly: Tumor tissue histology (necrosis area, nuclear fission), Caki-I xenograft mouse model. In kind it is in vivo, mice. The conditions noted are these: day 35. On the procedure: as §1, §2
The day when the tumor size of the renal cell carcinoma xenograft mouse models became 200 mm^3 or more was called day 0 and the intraperitoneal injection of a D-allose-containing solution was started from day 1. The solution injected is 0.4 mL of physiological saline or a solution obtained by dissolving 100 mg/kg or 400 mg/kg of D-allose in 0.4 mL physiological saline. The resulting solution was intraperitoneally injected into three groups of mice (Control, 100 mg/kg of D-allose, and 400 mg/kg of D-allose) once a day for 5 weeks in total. The body weight of the mice and the long and short diameters of the tumor were measured over time twice a week. It is to be noted that the tumor volume was obtained as a product of long diameter×short diameter×short diameter of the tumor×0.5. On day 35 after the intraperitoneal injection was started, the tumor as well as the liver and kidney were excised from the mice and provided for the experiment performed thereafter.
The tissue of the excised tumor, kidney, and liver was fixed with a 4% paraformaldehyde phosphate buffer, embedded with paraffin, and sliced into a 4-μm thick section. The resulting sliced section was stained with hematoxylin and eosin and evaluated by a medical specialist in pathology. The influence of D-allose on the tumor tissue was evaluated by a necrosis area (%) and an image of the number of nuclear fissions (Cells/HPF). It is to be noted that the necrosis area was measured using an image recording software Nikon NIS—Elements D and figures after the decimal point were omitted. On the other hand, the number of nuclear fissions was obtained as an average of those of three fields of view and figures after the decimal point were also omitted. The anti-tumor effect of D-allose, more specifically, necrosis area and the number of nuclear fissions in the renal cell carcinoma xenograft mouse model are shown in Table 10.

Series [3] deals with renal cell carcinoma cell line (Caki-I). Kind of series: Cell survival assay (MTT assay), Caki-I. Format: cell-based, human. The settings on record: 10 mM, 25 mM and 50 mM in MEM, 24 hours, compared with Control (p<0.05), FIG. 2. As for the experimental part:
The antitumor effect of rare sugars was analyzed using the three human renal cell carcinoma cell lines (ACHN, Caki-I, and Caki-II) used in Example 1. As the rare sugars, used were the following ten rare sugars: L-allulose, D-allulose, D-allose, L-fructose, D-mannose, L-sorbose, D-tagatose, D-galactose, D-sorbose, and L-tagatose, while as monosaccharides not belonging to rare sugars, D-glucose and D-fructose were used.
As a medium, a minimum essential medium (MEM) containing 1000 mg/l of D-glucose was used. By adjusting it to contain 10 mM, 25 mM, and 50 mM of each of the monosaccharides or rare sugars and using thus-obtained MEMs [shown by (10), (25), and (50) in the drawing], an antitumor effect of the rare sugars was evaluated.
A 5.0×10^4 cells/ml of each of cell suspensions was formed using MEM. The resulting suspension (0.1 ml/well) was distributed in a 96-well plate, followed by culturing for 24 hours. […]
The MTT assay is one of test methods for measuring survival and makes use of a color reaction of an insoluble formazan dye (blue) caused by the reduction of MTT which is a tetrazolium salt. […] The cell viability is determined by measuring this color reaction with a microplate reader.

The subject of series [4] is Caki-I tumor. Kind of series: D-allose concentration in tumor after intraperitoneal injection, Caki-I xenograft mouse model. In kind it is in vivo. The settings on record: Caki-I xenograft mice, 400 mg/kg intraperitoneal. As for the experimental part: as §1, §2, §3
Where [5] appears, read: 100 mg/kg intraperitoneal once a day.
The mark [6] stands for this setting: 400 mg/kg intraperitoneal once a day.

Regarding `O=C[C@H](O)[C@H](O)[C@H](O)[C@H](O)CO` [D-allose], the “D-allose in tumor one hour after intraperitoneal injection” value is reported as “detected” in series [1] (HPLC, FIG. 4) and “detected” in series [4] (HPLC, FIG. 4). Also, the “Time after injection at which D-allose concentration in tumor became the highest” value in series [1] (sampled 1, 2, 4 hours) is on record as “two”; in series [4] (sampled 1, 2, 4 hours) it was “one”. The Necrosis area in series [2] (setting [5]) is 22%; in series [2] (setting [6]), 33%. Also, the Nuclear fission in series [2] (setting [5]) stood at 0.9 Cells/HPF; in series [2] (setting [6]), 1 Cells/HPF. Moreover, the Viability result in series [3] is “significantly reduced the viability”.
